{"source": "paper PMC6718988", "about": "“Bioactivity and Bactericidal Mechanism of Histidine-Rich β-Hairpin Peptide Against Gram-Negative Bacteria” (International Journal of Molecular Sciences, 2019)", "key": {"E. coli ATCC25922 [1]": {"tested_on": "E. coli ATCC25922", "experiment": "SEM characterization of cell morphology", "assay_type": "cell-based", "settings": "E. coli ATCC25922, 1 × MIC (HV2 8 μM, PG-1 4 μM), 1 h", "description": "For the SEM sample preparation, E. coli ATCC25922 cells were cultured at 37 °C to mid-log phase in MH broth with constant shaking at 220 rpm, centrifuged at 1000 g and then adjusted to an OD600 of 0.1–0.2 in PBS. […] Bacteria incubated with PBS served as controls. After the incubation, the mixture was centrifuged at 5000 g for 5 min, and the collected bacteria were washed three times with PBS. Approximately 2.5% (w/v) glutaraldehyde was added for fixation at 4 °C overnight, followed by washing three times with PBS. The samples were dehydrated with 50%, 70%, 90%, 100% ethanol for 10 min. A mixture of ethanol and tert-butanol was added to the dried bacterial cells for 30 min, and then t-butanol was added for 1 h. Finally, the samples were dehydrated and coated with liquid CO2 in a critical point dryer and then observed using a Hitachi S-4800 SEM (Hitachi, Tokyo, Japan)."}, "Gram-negative bacteria": {"tested_on": "Gram-negative bacteria", "experiment": "MICs against Gram-negative strains (geometric mean, range)", "assay_type": "cell-based", "description": "The minimum inhibitory concentration (MIC) was measured using a broth microdilution method to determine the in vitro antimicrobial activity of the peptides. Bacteria were inoculated into MHB and incubated overnight at 37 °C until the bacteria were in log phase growth. Next, we corrected the bacterial concentration to approximately 1 × 10^5 CFU/mL using MHB. The peptides were added to 96-well plates containing 0.01% acetic acid and 0.2% bovine serum albumin at final concentrations ranging from 0.25 to 128 μM. After incubation at 37 °C for 24 h, the absorbance was measured at 492 nm using a microplate reader (Tecan GENios F129004, Tecan, Austria). Broth containing microbes and […] were used as positive and negative controls, respectively. The lowest peptide concentration with no increase in absorbance compared to that of the negative control was defined as the MIC. The experiments were independently performed three times."}, "[2]": {"experiment": "LPS binding assay (BODIPY-TR-cadaverine displacement)", "parameters": "species or system E. coli", "settings": "peptide concentration higher than 4 μM; 50 μg/mL LPS, 5 μg/mL BODIPY-TR cadaverine, Tris 50 mM pH 7.4; 100% = 10 μg/mL polymyxin B", "description": "The abilities of the antimicrobial peptides to bind LPS were determined using the fluorescent dye BODIPY-TR-cadaverine (BC) substitution method. LPS (50 μg/mL) from E. coli O111:B4 was incubated with BC (5 μg/mL) in Tris buffer (50 mm, pH 7.4) for 4 h. Next, 50 μL of various concentrations of peptides (final concentration of 1–64 μM) and 50 μL of LPS-BC mixture were added to 96-well plates, and the fluorescence was measured using a fluorescence spectrophotometer (Infinite 200 pro, Tecan, China) at an excitation wavelength of 580 nm and an emission wavelength of 620 nm. Each test was performed three times. The values were converted to %∆F (AU) using the following equation:%ΔF (AU) = [(Fobs − F0)/(F100 − F0)] × 100 where Fobs is the fluorescence value measured in the presence of the peptide, F0 is the initial fluorescence of LPS with BC without the addition of peptides, F100 is the fluorescence value produced by adding 10 μg/mL polymyxin B."}, "E. coli ATCC25922 [3]": {"tested_on": "E. coli ATCC25922", "experiment": "Membrane depolarization (diSC3-5)", "assay_type": "cell-based", "settings": "E. coli ATCC25922, 0.5, 1 and 2×MIC", "description": "The effects of the antimicrobial peptides on the plasma membrane potential were determined used cell membrane potential-sensitive fluorescent dye diSC3-5. Briefly, E. coli ATCC25922 cells were incubated in MHB to mid-log phase at 37 °C, rinsed 3 times with HEPES buffer, adjusted to an OD600 of 0.05. Next, KCl was used to adjust the final concentration to 0.4 μM and diSC3-5 was added. The mixture was incubated for 30 min at 37 °C. The antibacterial peptides at concentrations of 0.5, 1 and 2×MIC were then added to a cuvette containing 2 mL of bacterial solution, and the fluorescence change was recorded from 0 to 600 s with an F-4500 fluorescence spectrophotometer (Hitachi, Tokyo, Japan) (excitation λ = 622 nm, emission λ = 670 nm). Bacteria without antimicrobial peptides were used to determine the background fluorescence."}}, "note": "Where a SMILES comes first, the peptide text is derived from it. [ ]: non-standard residue; d: D form."}
{"smiles": "CC(C)[C@H](NC(=O)CNC(=O)[C@H]1CCCN1C(=O)[C@@H](NC(=O)[C@H](Cc1c[nH]cn1)NC(=O)[C@@H](NC(=O)[C@H](Cc1c[nH]cn1)NC(=O)[C@@H](NC(=O)[C@H](CCCNC(=N)N)NC(=O)[C@@H](N)CCCNC(=N)N)C(C)C)C(C)C)C(C)C)C(=O)N[C@@H](Cc1c[nH]cn1)C(=O)N[C@H](C(=O)N[C@@H](Cc1c[nH]cn1)C(=O)N[C@H](C(=O)N[C@@H](CCCNC(=N)N)C(=O)N[C@@H](CCCNC(=N)N)C(N)=O)C(C)C)C(C)C", "note": "[HV2] (H-RRVHVHV[dP]GVHVHVRR-NH2; N-terminus assumed)", "values": [{"measurement": "cell morphology by SEM", "setting": "E. coli ATCC25922 [1]", "value": "rough and wrinkled"}, {"measurement": "MBC (GM), geometric mean of MICs, Gram (−)", "setting": "Gram-negative bacteria; Gram-negative strains, 256 μM used where no activity at 128 μM", "value": 7.13, "unit": "µM"}, {"measurement": "MIC against Gram-negative bacteria", "setting": "Gram-negative bacteria; range over the Gram-negative strains of Table 2", "value": "4 to 8", "unit": "µM"}, {"measurement": "LPS binding ability relative to binding activity of polymyxin B", "setting": "[2]", "value": "higher than 60%"}, {"measurement": "plasma membrane depolarization (diSC3-5 release)", "setting": "E. coli ATCC25922 [3]", "value": "more rapid and stronger plasma membrane depolarization relative to PG-1"}]}
